In publication PMC11231114 (EJNMMI Research, 2024):

Assays:
[1] = Ex vivo biodistribution after i.v. injection; format: in vivo, Wistar rats
Procedure: Approximately 0.2 mL/31.1 MBq of compound was administered i.v. At established time points after injection (15 min, 30 min, 1 h, 2 h, 4 h and 6 h), the animals were euthanized by cervical dislocation and dissected. Selected organs and tissues were weighed, and their radioactivity was measured using a NaI(Tl) crystal gamma counter. The results were adjusted for the radioactive decay of ^18F. The physiological distribution was calculated and expressed in terms of the percentage of administrated dose found in each of the selected organs (%ID) or per gram of tissues/organ (%ID/g) with suitable standards of the injected dose.
The results of radiopharmaceutical uptake are presented as a percentage of the dose administered per gram of tissue (%ID/g) in the form of an average with standard deviation (%ID/g; mean ± standard deviation (SD)). Where applicable, statistical analysis was performed with one-way analysis of variance (ANOVA) using GraphPad Prism software (GraphPad Software, La Jolla, CA, USA).

[2] = Dynamic microPET/CT imaging
Procedure: The scans were performed on a trimodal small animal scanner Albira Si PET/SPECT/CT Preclinical Imaging System (Bruker, Billerica, MA, USA) in a group of Wistar rats anesthetized with isoflurane (induction 4%, maintenance 1.5-2%).

[3] = 15 min after dosing, listed as [18F]SYN2
[4] = 6 h after dosing, listed as [18F]SYN2

## CN(C)c1ccc2cc3ccc(N(C)C)cc3[n+](CC[18F])c2c1 [[^18F]SYN2]
[1]; 15 min after dosing
  Mean %ID, Brain: 0.23 (0.09) %ID
  Mean %ID, Heart: 2.15 (0.18) %ID
  Mean %ID, Intestine: 17.1 ± 1.8 %ID
  Mean %ID, Kidneys: 13.4 ± 4.0 %ID
  Mean %ID, Liver: 7.57 (0.96) %ID
  Mean %ID, Lungs: 3.88 (0.36) %ID
  Mean %ID, Pancreas: 1.33 (0.23) %ID
  Mean %ID, Rest of the body: 51.01 (2.66) %ID
  Mean %ID, Spleen: 1.01 (0.20) %ID
  Mean %ID, Stomach: 1.99 (0.68) %ID
  Mean %ID, Urine: 0.46 (0.31) %ID
  Mean %ID/g, Blood: 0.33 (0.04) %ID/g
  Mean %ID/g, Brain: 0.13 (0.15) %ID/g
  Mean %ID/g, Heart: 3.02 %ID/g
  Mean %ID/g, Intestine: 0.98 (0.10) %ID/g
  Mean %ID/g, Kidneys: 7.07 (1.77) %ID/g
  Mean %ID/g, Liver: 0.89 (0.14) %ID/g
  Mean %ID/g, Lungs: 3.04 (0.55) %ID/g
  Mean %ID/g, Muscle: 0.82 (0.13) %ID/g
  Mean %ID/g, Pancreas: 2.22 (0.24) %ID/g
  Mean %ID/g, Spleen: 1.96 (0.51) %ID/g
  Mean %ID/g, Stomach: 1.65 (0.94) %ID/g
[1]; [3]
  Mean %ID, Intestine: 17.12 (1.81) %ID
  Mean %ID, Kidneys: 13.35 (3.97) %ID
[1]; 30 min after dosing
  Mean %ID, Brain: 0.19 (0.01) %ID
  Mean %ID, Heart: 2.19 (0.26) %ID
  Mean %ID, Intestine: 18.27 (1.40) %ID
  Mean %ID, Kidneys: 14.01 (3.78) %ID
  Mean %ID, Liver: 6.87 (1.10) %ID
  Mean %ID, Lungs: 2.64 (0.47) %ID
  Mean %ID, Pancreas: 0.97 (0.32) %ID
  Mean %ID, Rest of the body: 51.34 (1.73) %ID
  Mean %ID, Spleen: 0.79 (0.16) %ID
  Mean %ID, Stomach: 1.54 (0.12) %ID
  Mean %ID, Urine: 0.53 (0.25) %ID
  Mean %ID/g, Blood: 0.14 (0.02) %ID/g
  Mean %ID/g, Brain: 0.11 (0.00) %ID/g
  Mean %ID/g, Heart: 2.96 (0.49) %ID/g
  Mean %ID/g, Intestine: 1.29 (0.40) %ID/g
  Mean %ID/g, Kidneys: 7.22 (2.09) %ID/g
  Mean %ID/g, Liver: 0.74 (0.11) %ID/g
  Mean %ID/g, Lungs: 1.85 (0.24) %ID/g
  Mean %ID/g, Muscle: 0.46 (0.11) %ID/g
  Mean %ID/g, Pancreas: 1.75 (0.56) %ID/g
  Mean %ID/g, Spleen: 1.59 (0.41) %ID/g
  Mean %ID/g, Stomach: 1.11 (0.08) %ID/g
[1]; 1 h, based on %ID/g
  heart/liver ratio: 7.0 ± 1.8
  heart/lungs ratio: 2.1 ± 0.2
[1]; 1 h after dosing
  Mean %ID, Brain: 0.22 (0.12) %ID
  Mean %ID, Heart: 2.23 (0.11) %ID
  Mean %ID, Intestine: 20.18 (3.19) %ID
  Mean %ID, Kidneys: 12.91 (2.36) %ID
  Mean %ID, Liver: 3.66 (0.83) %ID
  Mean %ID, Lungs: 1.89 (0.23) %ID
  Mean %ID, Pancreas: 0.93 (0.01) %ID
  Mean %ID, Rest of the body: 46.30 (1.89) %ID
  Mean %ID, Spleen: 0.60 (0.10) %ID
  Mean %ID, Stomach: 1.84 (0.47) %ID
  Mean %ID, Urine: 1.59 (0.30) %ID
  Mean %ID/g, Blood: 0.08 (0.02) %ID/g
  Mean %ID/g, Brain: 0.12 (0.06) %ID/g
  Mean %ID/g, Heart: 3.0 ± 0.2 %ID/g
  Mean %ID/g, Intestine: 1.04 (0.18) %ID/g
  Mean %ID/g, Kidneys: 6.76 (1.23) %ID/g
  Mean %ID/g, Liver: 0.45 (0.11) %ID/g
  Mean %ID/g, Lungs: 1.42 (0.15) %ID/g
  Mean %ID/g, Muscle: 0.58 (0.18) %ID/g
  Mean %ID/g, Pancreas: 1.63 (0.16) %ID/g
  Mean %ID/g, Spleen: 1.15 (0.23) %ID/g
  Mean %ID/g, Stomach: 1.33 (0.33) %ID/g
[1]; 1 h after dosing, listed as [18F]SYN2
  Mean %ID/g, Heart: 2.99 (0.20) %ID/g
[1]; 1 h post-injection
  heart/blood ratio: 37
[1]; 2 h after dosing
  Mean %ID, Brain: 0.12 (0.01) %ID
  Mean %ID, Heart: 2.03 (0.23) %ID
  Mean %ID, Intestine: 25.93 (2.92) %ID
  Mean %ID, Kidneys: 9.65 (1.42) %ID
  Mean %ID, Liver: 2.46 (0.28) %ID
  Mean %ID, Lungs: 1.25 (0.31) %ID
  Mean %ID, Pancreas: 0.94 (0.22) %ID
  Mean %ID, Rest of the body: 44.09 (5.00) %ID
  Mean %ID, Spleen: 0.44 (0.04) %ID
  Mean %ID, Stomach: 1.66 (0.16) %ID
  Mean %ID, Urine: 3.94 (3.35) %ID
  Mean %ID/g, Blood: 0.04 (0.00) %ID/g
  Mean %ID/g, Brain: 0.07 (0.00) %ID/g
  Mean %ID/g, Heart: 2.58 (0.24) %ID/g
  Mean %ID/g, Intestine: 1.50 (0.24) %ID/g
  Mean %ID/g, Kidneys: 5.10 (0.85) %ID/g
  Mean %ID/g, Liver: 0.30 (0.04) %ID/g
  Mean %ID/g, Lungs: 0.90 (0.22) %ID/g
  Mean %ID/g, Muscle: 0.41 (0.09) %ID/g
  Mean %ID/g, Pancreas: 1.55 (0.36) %ID/g
  Mean %ID/g, Spleen: 0.84 (0.11) %ID/g
  Mean %ID/g, Stomach: 1.23 (0.22) %ID/g
[1]; 4 h after dosing
  Mean %ID, Brain: 0.25 (0.04) %ID
  Mean %ID, Heart: 2.15 (0.08) %ID
  Mean %ID, Intestine: 30.51 (0.47) %ID
  Mean %ID, Kidneys: 5.20 (0.36) %ID
  Mean %ID, Liver: 1.71 (0.27) %ID
  Mean %ID, Lungs: 0.89 (0.02) %ID
  Mean %ID, Pancreas: 0.84 (0.35) %ID
  Mean %ID, Rest of the body: 44.50 (2.38) %ID
  Mean %ID, Spleen: 0.32 (0.03) %ID
  Mean %ID, Stomach: 1.94 (0.38) %ID
  Mean %ID, Urine: 12.42 (1.40) %ID
  Mean %ID/g, Blood: 0.06 (0.02) %ID/g
  Mean %ID/g, Brain: 0.13 (0.02) %ID/g
  Mean %ID/g, Heart: 2.68 (0.44) %ID/g
  Mean %ID/g, Intestine: 1.88 (0.10) %ID/g
  Mean %ID/g, Kidneys: 2.86 (0.08) %ID/g
  Mean %ID/g, Liver: 0.21 (0.05) %ID/g
  Mean %ID/g, Lungs: 0.70 (0.02) %ID/g
  Mean %ID/g, Muscle: 0.51 (0.04) %ID/g
  Mean %ID/g, Pancreas: 1.56 (0.06) %ID/g
  Mean %ID/g, Spleen: 0.66 (0.06) %ID/g
  Mean %ID/g, Stomach: 1.58 (0.25) %ID/g
[1]; 6 h after dosing
  Mean %ID, Brain: 0.21 (0.02) %ID
  Mean %ID, Heart: 2.27 (0.21) %ID
  Mean %ID, Intestine: 33.4 ± 1.4 %ID
  Mean %ID, Kidneys: 3.4 ± 0.4 %ID
  Mean %ID, Liver: 1.07 (0.11) %ID
  Mean %ID, Lungs: 0.78 (0.14) %ID
  Mean %ID, Pancreas: 0.80 (0.05) %ID
  Mean %ID, Rest of the body: 44.67 (1.68) %ID
  Mean %ID, Spleen: 0.29 (0.02) %ID
  Mean %ID, Stomach: 1.53 (0.15) %ID
  Mean %ID, Urine: 15.27 (0.87) %ID
  Mean %ID/g, Blood: 0.04 (0.01) %ID/g
  Mean %ID/g, Brain: 0.13 (0.01) %ID/g
  Mean %ID/g, Heart: 2.79 %ID/g
  Mean %ID/g, Intestine: 2.00 (0.49) %ID/g
  Mean %ID/g, Kidneys: 1.69 (0.22) %ID/g
  Mean %ID/g, Liver: 0.12 (0.02) %ID/g
  Mean %ID/g, Lungs: 0.55 (0.08) %ID/g
  Mean %ID/g, Muscle: 0.53 (0.05) %ID/g
  Mean %ID/g, Pancreas: 1.27 (0.10) %ID/g
  Mean %ID/g, Spleen: 0.56 (0.02) %ID/g
  Mean %ID/g, Stomach: 1.12 (0.12) %ID/g
[1]; [4]
  Mean %ID, Intestine: 33.42 (1.37) %ID
  Mean %ID, Kidneys: 3.44 (0.37) %ID
[1]; ex vivo biodistribution
  retention in all other organs examined (other than intestine, kidneys): < 2 %ID/g
[1]; from 2 to 6 h
  myocardial uptake: 2.6–2.8 %ID/g
[1]; up to 6 h
  uptake in the myocardium: higher than 2.5 %ID/g
[1]; within 1-hour post-injection
  myocardial uptake: about 3.0 %ID/g
[2]; after 6 min
  SUV in the myocardium, plateau: 3.5
[2]; at 45 min
  SUV in the liver: 1.9
[2]; dynamic microPET
  SUV in the myocardium at the beginning: 4.0
  SUVmax in the liver: 2.9
  average standardized uptake value, myocardial uptake: 3.8
